Reference: BindingDB's records for patent US9617239 (North Carolina Central University, 2017)

Target: Beta-glucuronidase (Escherichia coli (strain K12), UniProt P05804)
Assay: β-Glucuronidase Activity Assay
Description: The β-glucuronidase assay was performed by the addition of 0.5 μl of compound (or DMSO) to the well of a black 384-well plate followed by the addition of 30 μl of diluted β-glucuronidase enzyme. […] After a 30 minute incubation at room temperature, the reaction was stopped by the addition of 20 ul 1 M Na2CO3. […] Minimum (min) controls were performed using reactions with no enzyme. Maximum (max) controls were performed using no compound. 1% DMSO was maintained in all reactions. Percent inhibition was calculated using RFU data by the following formula: [1−(assay readout-average of min)/(Average of Max-Average of Min)]×100

Chain of Beta-glucuronidase (P05804 whole entry): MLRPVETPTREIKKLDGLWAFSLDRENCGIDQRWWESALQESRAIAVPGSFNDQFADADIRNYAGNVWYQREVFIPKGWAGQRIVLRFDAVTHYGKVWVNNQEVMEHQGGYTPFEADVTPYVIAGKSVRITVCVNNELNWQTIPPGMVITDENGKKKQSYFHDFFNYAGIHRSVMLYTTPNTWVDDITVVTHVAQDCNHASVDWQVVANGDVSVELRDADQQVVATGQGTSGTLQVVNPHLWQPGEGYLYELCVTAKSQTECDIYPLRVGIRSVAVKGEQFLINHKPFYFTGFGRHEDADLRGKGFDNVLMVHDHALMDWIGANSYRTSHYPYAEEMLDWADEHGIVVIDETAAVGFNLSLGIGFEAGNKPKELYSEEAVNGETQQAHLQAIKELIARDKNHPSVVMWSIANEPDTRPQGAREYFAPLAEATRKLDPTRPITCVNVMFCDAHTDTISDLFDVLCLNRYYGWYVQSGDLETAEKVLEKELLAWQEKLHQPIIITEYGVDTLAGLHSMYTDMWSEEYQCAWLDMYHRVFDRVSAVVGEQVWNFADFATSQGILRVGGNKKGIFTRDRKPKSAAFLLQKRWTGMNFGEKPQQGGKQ

`O=S(=O)(NCc1cccc2ccccc12)c1cc(Cl)c(Oc2ccc3c(c2)OCO3)s1` [US9617239, BRITE-355233] showed an IC50 of 376 µM.
